Data set [1] deals with SK-N-DZ. Description: TUNEL assay / sub-G1 population (apoptosis). The class given is cell-based, human. To be noted: NB cells (SK-N-DZ), 500 nM, 24 h. How it is done: To measure the effect of the compounds on cell growth, cells were seeded at 3×10^4/ml into a 96-well plate. Once attached, cells were treated with various concentrations of AOH1160 for 72 h. Cell growth was measured by the CellTitor-Glo assay (Promega, Madison, WI) according to the manufacturer's instructions. To measure apoptosis, cells were seeded at 1×10^5/ml onto a chamber slide. Once attached, cells were treated with the 500 nM AOH1160 for 24 h. Cells were fixed and analyzed by a TUNEL assay using the TMR red in situ cell death detection kit (Roche Diagnostics, Indianapolis, IN).

Data set [2] in a line: Stability in plasma. The class given is in vitro ADME. The source says: FIGS. 8A-8B. FIG. 8A depicts an illustration of AOH1160 degradation by amide cleavage in mouse plasma. FIG. 8B depicts the stability of AOH1160 in human and animal plasma. […] AOH1160 is stable in the plasma of canine, monkey, and human, as well as in the plasma of ES-1-deficient mice (Es1e/SCID).
AOH1160 was degraded in the plasma collected from a wildtype Balb/c mouse, see FIGS. 8A-8B. […] AOH1160 is stable in the plasma of canine, monkey, and human, as well as in the plasma of ES-1-deficient mice (Es1e/SCID).

In data set [3] the test system is SK-N-DZ. Nature of the data set: Cell cycle analysis (PI, flow cytometry). The class given is cell-based, human. To be noted: NB cells (SK-N-DZ), 500 nM. How it is done: Cells were seeded at 1×10^5/ml in a 6-well plate. Once attached overnight, cells were treated with or without AOH1160 for 6 or 24 h. After being fixed in 60% ethanol and stained with propidium iodide (PI), cells were analyzed by flow cytometry to determine the cellular PI fluorescence intensity. The flow cytometry data were analyzed by the FlowJo program to model various cell populations.
Background: In flow cytometry, cells or beads pass a laser one at a time.

In data set [4] the test system is γH2A.X in 7SM0032 cells. Nature of the data set: Western blot. The class given is cell-based, human. Particulars: 500 nM. The method, then:
(§1) Cells were dissolved into the Laemmli sample buffer on the plate. The whole cell extracts were sonicated, and the proteins in the lysate were resolved using a 4-12% SDS polyacrylamide gel, and the resolved proteins were blotted onto a nitrocellulose membrane. Antibodies specific to H2A.X, cleaved caspase-3, full-length caspase-3, or cleaved caspase-9 were purchased from Cell Signaling Technology (Danvers, MA). The anti-γH2A.X antibody was purchased from Millipore. The membrane was blocked with 5% nonfat dry milk and incubated individually with each of these antibodies dissolved in the blocking buffer. After incubation with peroxidase-conjugated secondary antibodies, the protein of interest was detected using an ECL kit purchased from Thermo Fisher Scientific (Waltham, MA).

For data set [5], the system named is γH2A.X, caspase-3 and caspase-9 in SK-N-DZ cells. Description: Western blot. The class given is cell-based, human. To be noted: NB cells (SK-N-DZ), 500 nM. The method, then:
as §1
In general terms: In western blotting, separated proteins are transferred to a membrane and probed.

Data set [6] has as its system MDA-MB-436 xenograft tumor. Nature of the data set: Xenograft of a triple-negative breast cancer cell line in Es1e/SCID mice. To be noted: 40 mg/kg once daily. The format is in vivo. How it is done: FIGS. 10A-10B. Inhibition of the growth xenograft tumor derived from a triple-negative breast cancer cell line (MDA-MB-436). Mice bearing xenograft tumors were given vehicle only or 40 mg/kg of AOH1160 through the study. Shown are tumor volumes (FIG. 10A) and mouse body weights (FIG. 10B) in the course of the study. The Es1e/SCID mice used in this study were treated by vehicle only (diamond) or by 40 mg/kg AOH1160 (square) once daily.
Inhibition of the growth xenograft tumor derived from a triple-negative breast cancer cell line (MDA-MB-436). Mice bearing xenograft tumors were given vehicle only or 40 mg/kg of AOH1160 through the study. Shown are tumor volumes (FIG. 10A) and mouse body weights (FIG. 10B) in the course of the study. The Es1e/SCID mice used in this study were treated by vehicle only (diamond) or by 40 mg/kg AOH1160 (square) once daily.

Data set [7] concerns brain tumors. Nature of the data set: Brain tumors in mice, luciferase imaging. The class given is in vivo. Particulars: given once weekly to tumor bearing mice. How it is done: FIG. 12. Effects of AOH1160 on brain tumors in mice. The compound was given to tumor bearing mice once weekly. The brain cancer cells used in this study contains a luciferase. For measuring tumor growth, luciferin was injected into each mouse. The relative growth of the tumors in live mice was determined by measuring luminescent signals by a CCD camera.
The compound (AOH1160) was give into tumor bearing mice once weekly. The brain cancer cells used in this study contains a luciferase. For measuring tumor growth, luciferin was injected into each mouse. The relative growth of the tumors in live mice was determined by measuring luminescent signals by a CCD camera.

Data set [8] concerns the target T1, Recombinant human PCNA (Homo sapiens, UniProt P12004).
T1 construct: made in house
Nature of the data set: Saturation Transfer Difference (STD) NMR, competition with T3. The class given is binding. To be noted: 1 μM PCNA, 30 μM T3, 3.2 μM AOH1160. The method, then: Recombinant human PCNA was purified and exchanged to D2O-based phosphate buffered saline (PBS), pH 7.2. […] The reference spectra were acquired under the same condition without PCNA. 5 uM DSS was used as an internal reference to determine the reported ligand concentration in solution. All NMR experiments were carried out at 25° C. on 600 MHz Bruker Avance equipped with 5 mm triple resonance cryogenic probe. STD (Saturation Transfer Difference) NMR spectra were acquired with transients ranging from 2560 to 32000, spectral width 8012 Hz with 24 k data points. The recycle delay was 2.8 s. Selective saturation was composed of 50 gauss shaped pulses at a field strength of 86 Hz, and the duration of each pulse is 50 ms with a 500 μs delay between pulses. The spin lock filter used to suppress protein signal was optimized to 60 ms at field strength of 5 kHz. The frequency for protein saturation was optimized to be 0.9 ppm; the ligand signals were not disturbed with the employed selective saturation condition at this frequency. The reference spectrum was acquired with saturation irradiated at −30 ppm. To eliminate potential artifacts, the saturation and reference experiments were acquired in an interleaved manner, and the finished experiments were separated into two 1D data for analysis. The peak integration was carried out with Bruker Topspin software. […]

T1 sequence (P12004 whole entry): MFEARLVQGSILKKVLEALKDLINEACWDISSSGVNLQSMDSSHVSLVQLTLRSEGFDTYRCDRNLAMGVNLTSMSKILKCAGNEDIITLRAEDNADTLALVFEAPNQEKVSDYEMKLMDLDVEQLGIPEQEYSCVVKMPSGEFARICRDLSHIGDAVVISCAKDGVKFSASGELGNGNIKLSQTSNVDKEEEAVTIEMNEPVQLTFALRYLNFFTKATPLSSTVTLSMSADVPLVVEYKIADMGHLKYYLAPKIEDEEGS

For the compound `O=C(CNC(=O)c1cccc2ccccc12)Nc1ccccc1Oc1ccccc1` [AOH1160], the apoptosis result in data set [1] is “apoptosis as indicated by the increase in the sub-G1 population (FIG. 2A) and TUNEL positivity”. In addition, the stability in plasma entry in data set [2] (canine plasma) was “stable”; in data set [2] (human plasma) it was “stable”; in data set [2] (monkey plasma), “stable”; in data set [2] (plasma of ES-1-deficient mice (Es1e/SCID)), “stable”; in data set [2] (wildtype Balb/c mouse plasma), “quickly degraded”. Moreover, the cell cycle effect result in data set [3] is reported as “causes cell cycle arrest”. Also, the “intracellular γH2A.X level” value in data set [4] is “Nor does it increase intracellular γH2A.X level”. The caspase activation entry in data set [5] is “activation of caspase-3 and caspase-9”. Besides, the γH2A.X levels entry in data set [5] is “increases γH2A.X levels”. Besides, in data set [6], the weight loss entry is listed as “caused no significant weight loss”. Moreover, the “tumor growth (tumor volumes)” value in data set [6] (vs vehicle) was “inhibited tumor growth”. Besides, the “brain tumor growth (luminescent signals)” value in data set [7] was “inhibited brain tumor growth”. In data set [8], the “competition with T3 for binding to PCNA” value is “competes with T3 for binding to PCNA”.

The values above are taken from patent publication US12054447B2, “PCNA inhibitors” (City of Hope, priority 2015, dated 2024).
